Assay results as given in patent publication US20260151379A1, “SALT TYPE AND CRYSTAL FORM OF COMPLEMENT FACTOR B INHIBITOR, AND PREPARATION METHOD THEREFOR AND APPLICATION THEREOF” (SHANGHAI MEIYUE BIOTECH DEVELOPMENT CO., LTD., priority 2022, published 2026).
“And” between values parts separate entries of the source, which are not always exact repeats. Identical values can stand only once. Counter-ions that a name gives are not always drawn.

Columns and labels:
Assay type in all cases: physicochemical
[1] = Stability tests of compound of formula I and its monohydrochloride, phosphate and maleate (Example 4); conditions: for Stability (conclusion in words from Table 7): 40° C./75% RH closed/open and 60° C. closed, 2 wks
Description: The stability of the compound of formula I, the monohydrochloride of the compound of formula I in Example 1, the phosphate of the compound of formula I in Example 2, and the maleate of the compound of formula I in Example 3 were investigated.
Stability investigation conditions: 40° C./75% RH-closed, 40° C./75% RH-open, and 60° C.-closed; stability investigation content: changes in related substances and crystal forms.
Detection of related substances: about 6-7 mg of a sample was separately weighed out and added to a 10 mL volumetric flask; 50% aqueous acetonitrile solution was added for dissolution; the mixture was diluted to volume; and 10 μL of the sample was injected.

[2] = Solubility tests in water, SGF, FaSSIF, FeSSIF at 37° C. (Example 5)
Description: Experimental procedures: 30 mg (in water) or 15 mg of a sample was weighed out and added to a 4 mL vial; 3 mL of a medium to be tested (water, SGF, FaSSIF, or FeSSIF) was added; the mixture was continuously stirred at 37° C.; 0.5 mL of the sample was separately collected at 1 h and 24 h; centrifugation was performed at 12000 rpm for 10 min; the supernatant was diluted with 50% aqueous acetonitrile solution to an appropriate multiple; and the concentration of the supernatant was determined.
(§1) Control and linearity: 10 mg of the compound of formula I was weighed out and added to a 50 mL volumetric flask, 50% aqueous acetonitrile solution was added for dissolution, and the mixture was diluted to volume. Two parts were prepared in parallel. The control of the compound of formula I was taken and diluted with 50% aqueous acetonitrile solution to 100 μg/mL, 50 μg/mL, and 10 μg/mL, 5 μL of the sample was injected, and a standard curve was plotted.

[3] = Open storage of crystal form A under acceleration conditions (Example 7); conditions: 40° C./75% RH, 72 h
Text: The crystal form B is a monohydrate of the monohydrochloride of the compound of formula I.

[4] = Stability investigation of crystal form C of monohydrochloride, 1 month (Example 11)
Description: […] The stability of the crystal form was investigated.
Detection method for related substances of the stability sample: about 6 mg of the sample was weighed out and added to a 40 mL clean glass bottle; 10 mL of 50% aqueous acetonitrile solution was added; the sample was dissolved completely by ultrasonication; and 10 μL of the sample was injected for the test of the related substances, as shown in Table 15. The XRPD pattern is shown in FIG. 18, wherein HCl-salt Form 3-initial (hereinafter referred to as initial) represents the XRPD pattern of the crystal form C prepared in Example 8.

[5] = Effect of high temperature and high humidity on crystal form C (Example 12); conditions: open, 60° C., 80% RH and 92.5% RH, 1 day and 3 days
Text: The sample was separately collected on 1d and 3d for XRPD testing.

[6] = Solubility tests of compound of formula I, mixture of crystal forms A and B, and crystal form C at 37° C. (Example 13)
Description: An appropriate amount of a test sample was weighed out and added to a vial; 3 mL of a medium (water, SGF, FaSSIF, FeSSIF, or the like) was added; the mixture was stirred at 37° C.; […]; centrifugation was performed at 12000 rpm for 10 min; the supernatant was diluted with 50% aqueous acetonitrile solution to an appropriate multiple; and the concentration of the supernatant was determined.
as §1, with “control” for “control of the compound of formula I”

[7] = FaSSIF, listed as Compound of formula I Hydrochloride
[8] = FeSSIF, listed as Compound of formula I Hydrochloride
[9] = SGF, listed as Compound of formula I Hydrochloride
[10] = Water, listed as Compound of formula I Hydrochloride
[11] = Initial, listed as Crystal form C of monohydrochloride of compound of formula I
[12] = pH 6.8 (adjusted with sodium hydroxide solution), 37° C.
[13] = pH 7.4 (adjusted with sodium hydroxide solution), 37° C.

COc1cc(C)c2[nH]ccc2c1CN1CCC(OCC2CC2)CC1c1ccc(C(=O)O)cc1.O=C(O)C=CC(=O)O (stereo not shown) [Compound of formula I Maleate]
Stability (conclusion in words from Table 7) [1]: stable
Appearance ([1]; 40° C./75% RH-closed-2 wks): White powder
Maximum single impurity % ([1]; 40° C./75% RH-closed-2 wks): 0.08%
Purity % ([1]; 40° C./75% RH-closed-2 wks): 99.78%
Total impurity % ([1]; 40° C./75% RH-closed-2 wks): 0.22%
Maximum single impurity % ([1]; 40° C./75% RH-open-2 wks): 0.09%
Purity % ([1]; 40° C./75% RH-open-2 wks): 99.64%
Total impurity % ([1]; 40° C./75% RH-open-2 wks): 0.36%
Appearance ([1]; 60° C.-closed-2 wks): White powder
Maximum single impurity % ([1]; 60° C.-closed-2 wks): 0.09%
Purity % ([1]; 60° C.-closed-2 wks): 99.69%
Total impurity % ([1]; 60° C.-closed-2 wks): 0.31%
Appearance ([1]; Initial): White powder
Maximum single impurity % ([1]; Initial): 0.08%
Purity % ([1]; Initial): 99.80%
Total impurity % ([1]; Initial): 0.20%

COc1cc(C)c2[nH]ccc2c1CN1CC[C@H](OCC2CC2)C[C@H]1c1ccc(C(=O)O)cc1 [Compound of formula I Monohydrochloride]
Stability (conclusion in words from Table 7) ([1]; listed as monohydrochloride): more stable
Appearance ([1]; 40° C./75% RH-closed-2 wks): White powder
Maximum single impurity % ([1]; 40° C./75% RH-closed-2 wks): 0.11%
Purity % ([1]; 40° C./75% RH-closed-2 wks): 99.57%
Total impurity % ([1]; 40° C./75% RH-closed-2 wks): 0.43%
Appearance ([1]; 40° C./75% RH-open-2 wks): White powder
Maximum single impurity % ([1]; 40° C./75% RH-open-2 wks): 0.10%
Purity % ([1]; 40° C./75% RH-open-2 wks): 99.59%
Total impurity % ([1]; 40° C./75% RH-open-2 wks): 0.41%
Appearance ([1]; 60° C.-closed-2 wks): White powder
Maximum single impurity % ([1]; 60° C.-closed-2 wks): 0.13%
Purity % ([1]; 60° C.-closed-2 wks): 99.59%
Total impurity % ([1]; 60° C.-closed-2 wks): 0.41%
Appearance ([1]; Initial): White powder
Maximum single impurity % ([1]; Initial): 0.14%
Purity % ([1]; Initial): 99.59%
Total impurity % ([1]; Initial): 0.41%
Final pH [2, 7]: 3.83
Solubility (mg/mL) (1 h) [2, 7]: 0.64 mg/mL
Solubility (mg/mL) (24 h) [2, 7]: 0.39 mg/mL
Final pH [2, 8]: 4.85
Solubility (mg/mL) (1 h) [2, 8]: 0.74 mg/mL
Solubility (mg/mL) (24 h) [2, 8]: 0.44 mg/mL
Final pH [2, 9]: 1.52
Solubility (mg/mL) (1 h) [2, 9]: 5.90 mg/mL
Solubility (mg/mL) (24 h) [2, 9]: 5.97 mg/mL
Final pH [2, 10]: 2.49
Solubility (mg/mL) (1 h) [2, 10]: 11.74 mg/mL
Solubility (mg/mL) (24 h) [2, 10]: 11.14 mg/mL

COc1cc(C)c2[nH]ccc2c1CN1CCC(OCC2CC2)CC1c1ccc(C(=O)O)cc1.O=P(O)(O)O (stereo not shown) [Compound of formula I Phosphate]
Stability (conclusion in words from Table 7) [1]: stable
Appearance ([1]; 40° C./75% RH-closed-2 wks): White powder
Maximum single impurity % ([1]; 40° C./75% RH-closed-2 wks): 0.09%
Purity % ([1]; 40° C./75% RH-closed-2 wks): 99.63%
Total impurity % ([1]; 40° C./75% RH-closed-2 wks): 0.37%
Appearance ([1]; 40° C./75% RH-open-2 wks): White powder
Maximum single impurity % ([1]; 40° C./75% RH-open-2 wks): 0.09%
Purity % ([1]; 40° C./75% RH-open-2 wks): 99.64%
Total impurity % ([1]; 40° C./75% RH-open-2 wks): 0.36%
Appearance ([1]; 60° C.-closed-2 wks): White powder
Maximum single impurity % ([1]; 60° C.-closed-2 wks): 0.08%
Purity % ([1]; 60° C.-closed-2 wks): 99.62%
Total impurity % ([1]; 60° C.-closed-2 wks): 0.38%
Appearance ([1]; Initial): White powder
Maximum single impurity % ([1]; Initial): 0.07%
Purity % ([1]; Initial): 99.75%
Total impurity % ([1]; Initial): 0.25%
Final pH ([2]; FaSSIF): 4.76
Solubility (mg/mL) (1 h) ([2]; FaSSIF): 0.45 mg/mL
Solubility (mg/mL) (24 h) ([2]; FaSSIF): 0.27 mg/mL
Final pH ([2]; FessIF): 4.84
Solubility (mg/mL) (1 h) ([2]; FessIF): 0.64 mg/mL
Solubility (mg/mL) (24 h) ([2]; FessIF): 0.40 mg/mL
Final pH ([2]; SGF): 1.61
Solubility (mg/mL) (1 h) ([2]; SGF): 5.35 mg/mL
Solubility (mg/mL) (24 h) ([2]; SGF): 5.55 mg/mL
Final pH ([2]; Water): 2.53
Solubility (mg/mL) (1 h) ([2]; Water): 8.07 mg/mL
Solubility (mg/mL) (24 h) ([2]; Water): 6.24 mg/mL

COc1cc(C)c2[nH]ccc2c1CN1CCC(OCC2CC2)CC1c1ccc(C(=O)O)cc1.Cl (stereo not shown) [Crystal form A]
Crystal form after open storage [3]: transformed into crystal form B

COc1cc(C)c2[nH]ccc2c1CN1CCC(OCC2CC2)CC1c1ccc(C(=O)O)cc1.Cl (stereo not shown) [Crystal form C]
Chemical stability (in words) ([4]; 40° C./75% RH and 60° C. for 1 month): good chemical stability
Maximum single impurity % ([4]; 40° C./75% RH-closed-1 M): 0.29%
Purity % ([4]; 40° C./75% RH-closed-1 M): 99.58%
Total impurity % ([4]; 40° C./75% RH-closed-1 M): 0.42%
Maximum single impurity % ([4]; 40° C.75% RH-open-1 M): 0.27%
Purity % ([4]; 40° C.75% RH-open-1 M): 99.60%
Total impurity % ([4]; 40° C.75% RH-open-1 M): 0.40%
Maximum single impurity % ([4]; 60° C.-closed-1 M): 0.32%
Purity % ([4]; 60° C.-closed-1 M): 99.56%
Total impurity % ([4]; 60° C.-closed-1 M): 0.44%
Appearance ([4]; Initial): White powder
Maximum single impurity % [4, 11]: 0.65% and 0.96%
Purity % [4, 11]: 99.17% and 98.88%
Total impurity % [4, 11]: 0.83% and 1.12%
Crystal form by XRPD after storage (FIG. 18) ([4]; acceleration and high temperature conditions, 1 month): not changed
Crystal form by XRPD after exposure (FIGS. 19 and 20) [5]: not changed
Final pH ([6]; FaSSIF, 37° C.): 3.27
solubility at 1 h ([6]; FaSSIF, 37° C.): 1160 µg/mL
solubility at 24 h ([6]; FaSSIF, 37° C.): 880 µg/mL
Final pH ([6]; FessIF, 37° C.): 4.83
solubility at 1 h ([6]; FessIF, 37° C.): 640 µg/mL
solubility at 24 h ([6]; FessIF, 37° C.): 420 µg/mL
Final pH ([6]; SGF, 37° C.): 1.26
solubility at 1 h ([6]; SGF, 37° C.): 940 µg/mL
solubility at 24 h ([6]; SGF, 37° C.): 790 µg/mL
Final pH ([6]; Water, 37° C.): 2.49
Solubility in water compared to mixture of crystal forms A and B (in words) ([6]; Water, 37° C.): reduced solubility in water compared to the mixture of crystal forms A and B
solubility at 1 h ([6]; Water, 37° C.): 8320 µg/mL
solubility at 24 h ([6]; Water, 37° C.): 7540 µg/mL
Solubility at 1 h (mg/mL) [6, 12]: 0.56(1 h) mg/mL
Solubility (mg/mL) (48 h) [6, 12]: 0.21(48 h) mg/mL
Final pH ([6]; pH 6.8, 37° C., 1 h line): 6.65
Final pH ([6]; pH 6.8, 37° C., 48 h line): 6.82
Solubility at 1 h (mg/mL) [6, 13]: 0.45(1 h) mg/mL
Solubility (mg/mL) (48 h) [6, 13]: 0.24(48 h) mg/mL
Final pH ([6]; pH 7.4, 37° C., 1 h line): 7.23
Final pH ([6]; pH 7.4, 37° C., 48 h line): 7.42
